# Experimental data: patent US20240148671A1, “METHODS FOR IMPROVING POULTRY HEALTH” (CORNELL UNIVERSITY, priority 2021, published 2024)
# Test system: DMT1 (Divalent metal transporter 1)
# Test: Gene expression (RT-PCR), DMT1
# Assay type: in vivo, Gallus gallus
# Settings: at hatch, b173: compared with the other treatments and the controls, b190: comparator not stated, p<0.05
# Method: The pure resveratrol and pterostilbene were individually diluted in 18 MΩ H2O. The intra-amniotic administration followed the methodology previously described. On the 17th day of embryonic development, the eggs with viable embryos (n=60) were randomly allocated into 6 groups (n=10) with a similar weight frequency distribution. For the intra-amniotic treatment, 1 mL of solution per egg was injected into the amniotic fluid (via candling) with the aid of a 21-gauge needle. […]
# The RNA was isolated as described previously (RNeasy Mini Kit, Qiagen Inc., Valencia, CA, USA), and 30 mg of the duodenal tissue or liver tissue (n =8) was used to extract the total RNA. […] Finally, the RNA was eluted in 50 μL of RNase-free water and quantified by absorbance at 260 and 280 nm.
# RT-PCR was conducted as described. […] The cDNA content was assessed by absorbance at 260 and 280 nm, with an extinction coefficient of 33 (single-stranded DNA). Genomic DNA contamination was evaluated via a real-time RT-PCR assay for the reference gene samples [17,18,30]. […]
# The procedures were performed as previously published. […] The optimal MgCl2 concentration achieved, for each reaction, an amplification plot (lowest cycle product, Cp), the uppermost fluorescence intensity and the steepest amplification slope. […]
smiles,measurement,setting,value
"Oc1ccc(C=Cc2cc(O)cc(O)c2)cc1 [5% Resveratrol, Resveratrol]",DMT1 relative gene expression,listed as 5% resveratrol,lowest
same,DMT1 relative gene expression,listed as resveratrol,downregulated significantly
